# Source: patent publication US20230183219A1, “CONDENSED SUBSTITUTED HYDROPYRROLES AS ANTAGONISTS OF THE MUSCARINIC ACETYLCHOLINE RECEPTOR M4” (Vanderbilt University, priority 2020, published 2023)
# Like-named read-outs stand apart in the source and are kept apart here.
# Target: T1, Human M4 (Homo sapiens, UniProt P08173)
# T1 construct: Human or rat M4 cDNA, along with the chimeric G protein Gqi5, were transfected into Chinese hamster ovary (CHO-K1) cells; expressed in transfected cells; host or cells: CHO-K1 (Chinese hamster ovary, ATCC), stably co-expressing Gqi5
# T1 sequence (P08173 1-479): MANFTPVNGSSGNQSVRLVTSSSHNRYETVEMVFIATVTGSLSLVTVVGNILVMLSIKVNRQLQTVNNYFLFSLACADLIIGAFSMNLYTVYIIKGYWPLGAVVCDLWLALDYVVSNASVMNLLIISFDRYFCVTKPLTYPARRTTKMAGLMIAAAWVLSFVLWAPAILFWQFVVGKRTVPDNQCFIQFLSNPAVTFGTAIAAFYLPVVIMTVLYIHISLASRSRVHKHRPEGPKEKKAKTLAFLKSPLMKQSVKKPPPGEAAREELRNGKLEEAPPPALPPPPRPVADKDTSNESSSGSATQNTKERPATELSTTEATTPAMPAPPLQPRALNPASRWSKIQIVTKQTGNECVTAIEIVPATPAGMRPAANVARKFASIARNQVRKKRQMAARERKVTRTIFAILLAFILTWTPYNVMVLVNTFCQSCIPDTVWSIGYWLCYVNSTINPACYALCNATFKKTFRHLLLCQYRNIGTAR
# Assay: mAChR M4 cell-based functional assay (calcium flux, decrease of EC80 acetylcholine response)
# Conditions: for remaining activity at 30 µM: read-out: Human M4 Emin; for IC50: M4/Gqi5/CHO-K1 cells, decrease of response to EC80 acetylcholine
# Method in brief: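 IC50 reflects inhibition of an EC80 acetylcholine calcium response, fitted by four-parameter logistic equation. Fluo-4-loaded M4/Gqi5 CHO-K1 cells received compound (10-point, 1:3 series) 2 s into the FDSS read, then EC20 acetylcholine at 143 s and EC80 at 268 s.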
SMILES,remaining activity at 30 µM (% ACh maximum at 30 μM) [%],IC50 [nM],remaining activity at 30 µM [%],Human M4 Emin (% ACh maximum at 30 μM) [%]
"Cn1cnc2ccc(-c3cc(C(F)(F)F)c(N[C@H]4C[C@@H]5CN(Cc6ccccn6)C[C@@H]5C4)nn3)cc21 [Example 117, (3aR,5s,6aS)-N-(6-(1-methyl-1H-benzo[d]imidazol-6-yl)-4-(trifluoromethyl)pyridazin-3-yl)-2-(pyridin-2-ylmethyl)octahydro-cyclopenta[c]pyrrol-5-amine]",4,345,–,–
"Cc1ccc(F)cc1-c1cc(C#N)c(N[C@H]2C[C@@H]3CN(CC4CCOCC4)C[C@@H]3C2)nn1 [Example 146, 6-(5-fluoro-2-methylphenyl)-3-(((3aR,5s,6aS)-2-((tetrahydro-2H-pyran-4-yl)methyl)octahydro-cyclopenta[c]pyrrol-5-yl)amino)pyridazine-4-carbonitrile]",6,15.6,–,–
"[2H]C([2H])([C@H]1CCCCO1)N1C[C@H]2C[C@H](Nc3nnc(-c4cc(C)ccc4C)cc3C(F)(F)F)C[C@H]2C1 [Example 114, (3aR,5s,6aS)-N-(6-(2,5-dimethylphenyl)-4-(trifluoro-methyl)pyridazin-3-yl)-2-(((R)-tetrahydro-2H-pyran-2-yl)methyl-d2)octahydro-cyclopenta[c]pyrrol-5-amine]",3,235,–,–
"Cc1ccc(C)c(-c2cc(C(F)(F)F)c(N[C@H]3C[C@@H]4CN(C[C@H]5COCCO5)C[C@@H]4C3)nn2)c1 [Example 72, (3aR,5s,6aS)-2-(((S)-1,4-dioxan-2-yl)methyl)-N-(6-(2,5-dimethylphenyl)-4-(trifluoromethyl)pyridazin-3-yl)octahydro-cyclopenta[c]pyrrol-5-amine]",3,52.9,–,–
"FC1(F)CCN(c2cc(C(F)(F)F)c(N[C@H]3C[C@@H]4CN(CC5CCOCC5)C[C@@H]4C3)nn2)C1 [Example 141, (3aR,5s,6aS)-N-(6-(3,3-difluoropyrrolidin-1-yl)-4-(trifluoromethyl)pyridazin-3-yl)-2-((tetrahydro-2H-pyran-4-yl)methyl)octahydro-cyclopenta[c]pyrrol-5-amine]",2,8.3,–,–
"Cc1cc(C)cc(-c2cc(C(F)(F)F)c(N[C@H]3C[C@@H]4CN(Cc5ccccn5)C[C@@H]4C3)nn2)c1 [Example 104, (3aR,5s,6aS)-N-(6-(3,5-dimethylphenyl)-4-(trifluoromethyl)pyridazin-3-yl)-2-(pyridin-2-ylmethyl)octahydro-cyclopenta[c]pyrrol-5-amine]",3,328,–,–
"Cn1cc2cc(-c3cc(C#N)c(N[C@H]4C[C@@H]5CN(C[C@H]6CCOC6)C[C@@H]5C4)nn3)ccc2n1 [Example 155, 6-(2-methyl-2H-indazol-5-yl)-3-(((3aR,5s,6aS)-2-(((R)-tetrahydrofuran-3-yl)methyl)octahydro-cyclopenta[c]pyrrol-5-yl)amino)pyridazine-4-carbonitrile]",5,103,–,–
"Cn1cc2cc(-c3cnc(N[C@H]4C[C@@H]5CN(CC6CCOCC6)C[C@@H]5C4)nc3)ccc2n1 [Example 12, (3aR,5s,6aS)-N-(5-(2-methyl-2H-indazol-5-yl)pyrimidin-2-yl)-2-((tetrahydro-2H-pyran-4-yl)methyl)octahydro-cyclopenta[c]pyrrol-5-amine]",–,2750,10,–
"Cc1ccc(F)cc1-c1cc(C(F)(F)F)c(N[C@H]2C[C@@H]3CN(CC4(F)CCOCC4)C[C@@H]3C2)nn1 [Example 23, (3aR,5s,6aS)-N-(6-(5-fluoro-2-methylphenyl)-4-(trifluoromethyl)pyridazin-3-yl)-2-((4-fluorotetrahydro-2H-pyran-4-yl)methyl)octahydro-cyclopenta[c]pyrrol-5-amine]",3,23.7,–,–
"C[C@H]1CCCN(c2cc(C(F)(F)F)c(N[C@H]3C[C@@H]4CN(CC5CCOCC5)C[C@@H]4C3)nn2)C1 [Example 6, (3aR,5s,6aS)—N-(6-((S)-3-methylpiperidin-1-yl)-4-(trifluoromethyl)pyridazin-3-yl)-2-((tetrahydro-2H-pyran-4-yl)methyl)octahydrocyclopenta[c]pyrrol-5-amine]",–,1220,–,4
"[2H][C@@]1(Oc2nnc(-c3cc(F)ccc3C)cc2C(F)(F)F)C[C@H]2CN(CC3CCOCC3)C[C@H]2C1 [Example 135, (3aR,5s,6aS)-5-((6-(5-fluoro-2-methylphenyl)-4-(trifluoro-methyl)pyridazin-3-yl)oxy)-2-((tetrahydro-2H-pyran-4-yl)methyl)octahydro-cyclopenta[c]pyrrole-5-d]",4,622,–,–

# Further lines, with some results ahead:
remaining activity at 30 µM (% ACh maximum at 30 μM) [%],IC50 [nM],SMILES,remaining activity at 30 µM [%],Human M4 Emin (% ACh maximum at 30 μM) [%]
4,99.7,"Cn1cc2cc(-c3cc(C(F)(F)F)c(N[C@H]4C[C@@H]5CN(CC6CCCOC6)C[C@@H]5C4)nn3)ccc2n1 (single isomer, unassigned) [Example 36]",–,–
6,147,"Cn1cc2cc(-c3cc(C(F)(F)F)c(N[C@H]4C[C@@H]5CN(C[C@@H]6COCCO6)C[C@@H]5C4)nn3)ccc2n1 [Example 35, (3aR,5s,6aS)-2-(((R)-1,4-dioxan-2-yl)methyl)-N-(6-(2-methyl-2H-indazol-5-yl)-4-(trifluoromethyl)pyridazin-3-yl)octahydro-cyclopenta[c]pyrrol-5-amine]",–,–
4,637,"Cn1ccc2ccc(-c3cc(C(F)(F)F)c(N[C@H]4C[C@@H]5CN(CC6CCOCC6)C[C@@H]5C4)nn3)cc21 [Example 90, (3aR,5s,6aS)-N-(6-(1-methyl-1H-indol-6-yl)-4-(trifluoromethyl)pyridazin-3-yl)-2-((tetrahydro-2H-pyran-4-yl)methyl)octahydro-cyclopenta[c]pyrrol-5-amine]",–,–
3,72.7,"[2H]C([2H])(C1CCOCC1)N1C[C@H]2C[C@H](Nc3nnc(-c4cc(C)ccc4C)cc3C(F)(F)F)C[C@H]2C1 [Example 98, (3aR,5s,6aS)-N-(6-(2,5-dimethylphenyl)-4-(trifluoromethyl)pyridazin-3-yl)-2-((tetrahydro-2H-pyran-4-yl)methyl-d2)octahydro-cyclopenta[c]pyrrol-5-amine]",–,–
3,315,"Cc1ccc(C(F)(F)F)cc1-c1cc(C(F)(F)F)c(N[C@H]2C[C@@H]3CN(CC4CCOCC4)C[C@@H]3C2)nn1 [Example 53, (3aR,5s,6aS)-N-(6-(2-methyl-5-(trifluoromethyl)phenyl)-4-(trifluoromethyl)pyridazin-3-yl)-2-((tetrahydro-2H-pyran-4-yl)methyl)octahydro-cyclopenta[c]pyrrol-5-amine]",–,–
3,237,"Fc1cc(F)c(-c2cc(C(F)(F)F)c(N[C@H]3C[C@@H]4CN(CC5CCOCC5)C[C@@H]4C3)nn2)cc1F [Example 42, (3aR,5s,6aS)-2-((tetrahydro-2H-pyran-4-yl)methyl)-N-(4-(trifluoromethyl)-6-(2,4,5-trifluorophenyl)pyridazin-3-yl)octahydro-cyclopenta[c]pyrrol-5-amine]",–,–
3,47.6,"FC(F)(F)c1cc(-c2ccc3c(c2)CCO3)nnc1N[C@H]1C[C@@H]2CN(CC3CCOCC3)C[C@@H]2C1 [Example 88, (3aR,5s,6aS)-N-(6-(2,3-dihydrobenzofuran-5-yl)-4-(trifluoromethyl)pyridazin-3-yl)-2-((tetrahydro-2H-pyran-4-yl)methyl)octahydro-cyclopenta[c]pyrrol-5-amine]",–,–
3,115,"COc1cc(C)c(-c2cc(C(F)(F)F)c(N[C@H]3C[C@@H]4CN(CC5CCOCC5)C[C@@H]4C3)nn2)cc1C [Example 52, (3aR,5s,6aS)-N-(6-(4-methoxy-2,5-dimethylphenyl)-4-(trifluoromethyl)pyridazin-3-yl)-2-((tetrahydro-2H-pyran-4-yl)methyl)octahydro-cyclopenta[c]pyrrol-5-amine]",–,–
3,55.3,"[2H]C([2H])(C1CCOCC1)N1C[C@H]2C[C@H](Nc3nnc(-c4ccc5c(c4)OCC5)cc3C(F)(F)F)C[C@H]2C1 [Example 123, (3aR,5s,6aS)-N-(6-(2,3-dihydro-benzofuran-6-yl)-4-(trifluoro-methyl)pyridazin-3-yl)-2-((tetrahydro-2H-pyran-4-yl)methyl-d2)octahydro-cyclopenta[c]pyrrol-5-amine]",–,–
3,133,"Cc1ccncc1-c1cc(C(F)(F)F)c(N[C@H]2C[C@@H]3CN(CC4CCOCC4)C[C@@H]3C2)nn1 [Example 67, (3aR,5s,6aS)-N-(6-(4-methylpyridin-3-yl)-4-(trifluoromethyl)pyridazin-3-yl)-2-((tetrahydro-2H-pyran-4-yl)methyl)octahydro-cyclopenta[c]pyrrol-5-amine]",–,–
